The results in this text go back to ChEMBL document CHEMBL5131515, “Identification of Pyridinyltriazine Derivatives as Potent panFGFR Inhibitors against Gatekeeper Mutants for Overcoming Drug Resistance” (J Med Chem, 2022).

As usually defined, the GI50 is the concentration giving 50% growth inhibition. What is called IC50 is the concentration that inhibits the measured activity by half. A low value points to greater potency. One may read the inhibition as the relative decrease from the control value, in per cent.

Data set [1] relates to BaF3. In words: cells. The class given is functional. To be noted: Mus musculus.
The target in data set [2] is Fibroblast growth factor receptor 3 (Homo sapiens, UniProt P22607). The data set is described as follows: Inhibition of wild-type FGFR3 (unknown origin) by radiometric kinase activity assay.
Chain of Fibroblast growth factor receptor 3 (Homo sapiens, UniProt P22607) (P22607 whole entry): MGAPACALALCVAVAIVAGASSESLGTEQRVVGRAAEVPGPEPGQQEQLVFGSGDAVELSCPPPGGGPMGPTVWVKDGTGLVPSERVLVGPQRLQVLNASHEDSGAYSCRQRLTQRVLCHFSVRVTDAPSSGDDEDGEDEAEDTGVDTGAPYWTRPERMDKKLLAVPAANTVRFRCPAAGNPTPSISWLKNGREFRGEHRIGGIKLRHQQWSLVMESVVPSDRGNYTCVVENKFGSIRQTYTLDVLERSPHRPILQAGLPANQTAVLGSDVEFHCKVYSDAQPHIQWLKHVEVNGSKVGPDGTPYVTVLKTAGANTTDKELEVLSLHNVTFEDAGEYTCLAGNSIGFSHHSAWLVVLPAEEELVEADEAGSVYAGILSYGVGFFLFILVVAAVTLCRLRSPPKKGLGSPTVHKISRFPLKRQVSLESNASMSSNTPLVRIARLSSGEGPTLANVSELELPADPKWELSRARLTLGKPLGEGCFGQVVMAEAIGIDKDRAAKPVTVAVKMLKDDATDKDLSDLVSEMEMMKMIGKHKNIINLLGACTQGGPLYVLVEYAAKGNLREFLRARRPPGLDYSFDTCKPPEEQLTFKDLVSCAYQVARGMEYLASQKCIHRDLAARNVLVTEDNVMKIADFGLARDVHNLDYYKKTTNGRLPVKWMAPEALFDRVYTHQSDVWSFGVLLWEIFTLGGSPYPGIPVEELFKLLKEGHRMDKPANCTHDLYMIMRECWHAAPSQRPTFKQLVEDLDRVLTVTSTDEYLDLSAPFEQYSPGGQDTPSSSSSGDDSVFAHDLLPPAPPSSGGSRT
For data set [3], the system named is AN3-CA. In words: Antiproliferative activity against human AN3-CA cells harboring FGFR2 K310R/N549K mutant assessed as cell growth inhibition by CellTiter-Glo assay. The format is functional. (In ATP-based viability assays light output follows the ATP content of the culture.)
Data set [4] has as its target Fibroblast growth factor receptor 2 (Homo sapiens, UniProt P21802, V564F).
Description: Inhibition of FGFR2 V564F mutant (unknown origin) by radiometric kinase activity assay
A short description of data set [5]: Antiproliferative activity against mouse BaF3 cells assessed as cell growth inhibition by CellTiter-Glo assay.
Data set [6] relates to J82. In words: Antiproliferative activity against human J82 cells harboring FGFR3 K652E mutant assessed as cell growth inhibition by CellTiter-Glo assay. The format is functional.
Data set [7] concerns BaF3. The data set is described as follows: Antiproliferative activity against mouse BaF3 cells harboring TEL-FGFR3 assessed as cell growth inhibition by CellTiter-Glo assay. The class given is functional.
In data set [8] the target is Fibroblast growth factor receptor 3 (Homo sapiens, UniProt P22607, V555M).
Chain of Fibroblast growth factor receptor 3 (Homo sapiens, UniProt P22607, V555M) (P22607 23-806 V555M limits assumed): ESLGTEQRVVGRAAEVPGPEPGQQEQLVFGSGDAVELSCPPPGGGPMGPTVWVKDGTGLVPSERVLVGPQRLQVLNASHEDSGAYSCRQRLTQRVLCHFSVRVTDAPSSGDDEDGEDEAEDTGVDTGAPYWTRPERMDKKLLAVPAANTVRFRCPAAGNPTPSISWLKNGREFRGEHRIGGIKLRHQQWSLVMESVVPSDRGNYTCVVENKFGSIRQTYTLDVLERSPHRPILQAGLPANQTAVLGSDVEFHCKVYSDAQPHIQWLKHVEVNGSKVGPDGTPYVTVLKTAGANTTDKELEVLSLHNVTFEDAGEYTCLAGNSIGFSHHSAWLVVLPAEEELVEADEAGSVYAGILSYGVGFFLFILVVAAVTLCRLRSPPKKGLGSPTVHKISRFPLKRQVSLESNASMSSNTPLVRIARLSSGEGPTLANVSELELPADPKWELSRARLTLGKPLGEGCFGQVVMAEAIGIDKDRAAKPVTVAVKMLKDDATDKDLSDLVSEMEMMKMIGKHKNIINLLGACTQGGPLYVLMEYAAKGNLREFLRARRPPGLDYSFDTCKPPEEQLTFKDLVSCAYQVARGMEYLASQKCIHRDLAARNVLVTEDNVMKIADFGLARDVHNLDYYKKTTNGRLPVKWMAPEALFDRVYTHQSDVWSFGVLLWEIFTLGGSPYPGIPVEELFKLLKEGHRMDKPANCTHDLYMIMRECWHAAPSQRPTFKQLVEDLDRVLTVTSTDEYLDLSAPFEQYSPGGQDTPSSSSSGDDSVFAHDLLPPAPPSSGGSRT
The test system of data set [9] is KMS-11. In words: Antiproliferative activity against human KMS-11 cells harboring FGFR3 Y373C mutant assessed as cell growth inhibition by CellTiter-Glo assay. The class given is functional.
Data set [10] concerns the target Fibroblast growth factor receptor 2 (Homo sapiens, UniProt P21802, N549H).
Data set [11] deals with Fibroblast growth factor receptor 2 (Homo sapiens), P21802 [V564F]. In words: Inhibition of FGFR2 V564F mutant (unknown origin) at 10 uM by radiometric kinase activity assay relative to control.
Chain of Fibroblast growth factor receptor 2 (Homo sapiens), P21802 [V564F] (P21802 whole entry V564F): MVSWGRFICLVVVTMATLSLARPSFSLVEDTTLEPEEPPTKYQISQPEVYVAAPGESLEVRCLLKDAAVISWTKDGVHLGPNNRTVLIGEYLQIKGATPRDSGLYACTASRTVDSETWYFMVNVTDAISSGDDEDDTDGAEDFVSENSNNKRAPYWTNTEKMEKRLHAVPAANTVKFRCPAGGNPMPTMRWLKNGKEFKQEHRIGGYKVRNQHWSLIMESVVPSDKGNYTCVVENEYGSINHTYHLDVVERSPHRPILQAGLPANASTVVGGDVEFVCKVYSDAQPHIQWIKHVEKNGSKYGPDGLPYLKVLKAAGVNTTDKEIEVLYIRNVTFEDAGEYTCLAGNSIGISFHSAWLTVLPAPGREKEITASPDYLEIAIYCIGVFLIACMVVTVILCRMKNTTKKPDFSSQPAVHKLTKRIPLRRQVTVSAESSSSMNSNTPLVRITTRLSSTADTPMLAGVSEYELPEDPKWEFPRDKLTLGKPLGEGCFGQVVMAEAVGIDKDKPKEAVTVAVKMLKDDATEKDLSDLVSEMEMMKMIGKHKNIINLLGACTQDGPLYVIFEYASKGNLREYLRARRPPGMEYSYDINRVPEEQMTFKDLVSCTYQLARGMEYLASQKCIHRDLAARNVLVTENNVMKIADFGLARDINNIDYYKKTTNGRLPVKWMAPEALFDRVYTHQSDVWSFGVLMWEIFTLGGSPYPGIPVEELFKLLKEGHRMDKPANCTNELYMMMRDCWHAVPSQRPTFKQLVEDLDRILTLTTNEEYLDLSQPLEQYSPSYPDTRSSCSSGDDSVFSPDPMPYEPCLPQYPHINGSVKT
In data set [12] the test system is Fibroblast growth factor receptor 3 (Homo sapiens), P22607 [V555M]. The data set is described as follows: Inhibition of FGFR3 V555M mutant (unknown origin) at 10 uM by radiometric kinase activity assay relative to control.
Chain of Fibroblast growth factor receptor 3 (Homo sapiens), P22607 [V555M] (P22607 whole entry V555M): as the sequence (P22607 whole entry) above, with V555M counted along it
The test system of data set [13] is BaF3. The data set is described as follows: Antiproliferative activity against mouse BaF3 cells harboring TEL-FGFR4 N535K mutant assessed as cell growth inhibition by CellTiter-Glo assay. The class given is functional.
The subject of data set [14] is BaF3. The data set is described as follows: Antiproliferative activity against mouse BaF3 cells harboring TEL-FGFR4 V550E mutant assessed as cell growth inhibition by CellTiter-Glo assay. The class given is functional.
Data set [15] has as its target Fibroblast growth factor receptor 2 (Homo sapiens, UniProt P21802). In words: Inhibition of wild-type FGFR2 (unknown origin) by radiometric kinase activity assay.
Data set [16] has as its target Fibroblast growth factor receptor 3 (Homo sapiens, UniProt P22607, K650E).
Data set [17] deals with Fibroblast growth factor receptor 4 (Homo sapiens, UniProt P22455). In words: Inhibition of wild-type FGFR4 (unknown origin) by radiometric kinase activity assay.
Chain of Fibroblast growth factor receptor 4 (P22455 whole entry): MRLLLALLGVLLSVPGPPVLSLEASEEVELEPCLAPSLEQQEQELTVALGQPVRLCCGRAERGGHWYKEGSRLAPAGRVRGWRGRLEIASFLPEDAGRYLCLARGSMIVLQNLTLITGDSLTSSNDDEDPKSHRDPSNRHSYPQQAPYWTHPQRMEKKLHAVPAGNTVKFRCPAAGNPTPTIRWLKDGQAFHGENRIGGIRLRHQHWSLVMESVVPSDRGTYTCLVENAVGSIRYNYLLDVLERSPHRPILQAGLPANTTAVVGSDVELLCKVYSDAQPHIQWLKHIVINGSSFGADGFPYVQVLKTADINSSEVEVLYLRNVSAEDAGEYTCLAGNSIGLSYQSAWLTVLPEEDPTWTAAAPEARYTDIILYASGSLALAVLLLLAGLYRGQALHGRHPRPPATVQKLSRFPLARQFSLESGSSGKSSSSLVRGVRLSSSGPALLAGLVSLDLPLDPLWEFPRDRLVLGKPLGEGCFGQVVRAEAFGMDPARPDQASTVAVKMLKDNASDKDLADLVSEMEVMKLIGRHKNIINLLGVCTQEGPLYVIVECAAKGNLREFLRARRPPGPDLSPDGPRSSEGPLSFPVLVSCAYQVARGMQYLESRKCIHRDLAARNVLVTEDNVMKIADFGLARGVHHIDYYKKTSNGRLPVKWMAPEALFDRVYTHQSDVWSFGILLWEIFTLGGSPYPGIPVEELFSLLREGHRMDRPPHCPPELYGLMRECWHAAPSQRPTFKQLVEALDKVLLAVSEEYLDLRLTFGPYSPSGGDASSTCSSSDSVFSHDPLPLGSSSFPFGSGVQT

Chain of Fibroblast growth factor receptor 2 (Homo sapiens, UniProt P21802, V564F) (P21802 22-821 V564F limits assumed): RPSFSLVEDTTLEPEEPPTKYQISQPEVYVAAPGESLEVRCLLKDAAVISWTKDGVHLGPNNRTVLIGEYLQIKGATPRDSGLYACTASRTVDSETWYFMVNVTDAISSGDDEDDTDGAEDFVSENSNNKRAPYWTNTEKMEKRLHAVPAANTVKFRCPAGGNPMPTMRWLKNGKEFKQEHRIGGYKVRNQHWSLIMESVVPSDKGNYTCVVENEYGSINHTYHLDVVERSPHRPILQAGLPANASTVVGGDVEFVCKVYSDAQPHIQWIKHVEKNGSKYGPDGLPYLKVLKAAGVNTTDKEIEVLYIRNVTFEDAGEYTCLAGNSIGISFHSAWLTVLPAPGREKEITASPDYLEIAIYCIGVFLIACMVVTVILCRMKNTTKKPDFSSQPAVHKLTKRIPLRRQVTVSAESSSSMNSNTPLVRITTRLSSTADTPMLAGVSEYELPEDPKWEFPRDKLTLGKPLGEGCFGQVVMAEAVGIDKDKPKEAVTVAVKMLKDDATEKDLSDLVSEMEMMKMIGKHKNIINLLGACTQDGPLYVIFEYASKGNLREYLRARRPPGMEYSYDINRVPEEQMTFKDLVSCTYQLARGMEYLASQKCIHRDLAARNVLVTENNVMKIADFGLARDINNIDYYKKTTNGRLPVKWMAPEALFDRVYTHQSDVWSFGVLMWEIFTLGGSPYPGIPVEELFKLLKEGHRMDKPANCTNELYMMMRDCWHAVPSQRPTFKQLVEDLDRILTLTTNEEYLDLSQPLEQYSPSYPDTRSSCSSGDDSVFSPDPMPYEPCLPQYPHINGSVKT
Chain of Fibroblast growth factor receptor 2 (Homo sapiens, UniProt P21802, N549H) (P21802 22-821 N549H limits assumed): as the sequence (P21802 22-821 V564F limits assumed) above, with N528H, F543V counted along it
Chain of Fibroblast growth factor receptor 3 (Homo sapiens, UniProt P22607, K650E) (P22607 23-806 K650E limits assumed): as the sequence (P22607 23-806 V555M limits assumed) above, with M533V, K628E counted along it
Chain of Fibroblast growth factor receptor 2 (Homo sapiens, UniProt P21802) (P21802 whole entry): as the sequence (P21802 whole entry V564F) above, with F564V counted along it

As to `C=CCn1cc(Nc2ncnc(-c3cccnc3Nc3c(Cl)c(OC)cc(OC)c3Cl)n2)cn1`, the GI50 in data set [1] is 1820 nM; in data set [3] it was 18800 nM; in [5] (BaF3 cells), more than 5 µM; in data set [6], 0.991 µM; in [7], 10 nM; in data set [9], 341 nM. Also, the IC50 in data set [2] worked out at 1.41 nM; in data set [4], 3090 nM; in [8] it was 1710 nM; in data set [10] it was 26 nM.
For `COc1cc(OC)c(Cl)c(Nc2ncccc2-c2ncnc(N)n2)c1Cl`, the GI50 in data set [1] is more than 5000 nM; in data set [3], 753 nM; in data set [5] (BaF3 cells), more than 5 µM; in data set [6] it was 6.56 µM; in data set [7] it was 276 nM; in [9] it was 3270 nM. The IC50 worked out at 11.2 nM in [2] and 31.4 nM in [10]. Moreover, the inhibition in [11] and in data set [12] was less than 50% each time.
For `CCN1C(=O)N(c2c(F)c(OC)cc(OC)c2F)Cc2cnc3[nH]c(CN4CCOCC4)cc3c21` [PEMIGATINIB], the GI50 in [13] is 4.5 µM; in [1] it was 2070 nM; in data set [3], 132 nM; in data set [5] (BaF3 cells) it was more than 5 µM; in data set [6] it was 4.29 µM; in data set [7] it was 5 nM. Also, the GI50 was 232 nM in [9] and more than 5 µM in data set [14].
As to `COc1cccc(Nc2ncnc(-c3cccnc3Nc3c(Cl)c(OC)cc(OC)c3Cl)n2)c1`, the GI50 is more than 5000 nM in data set [1]; 202 nM in data set [3]; more than 5 µM in data set [5] (BaF3 cells); 4.88 µM in [6]; 30 nM in data set [7]; 895 nM in data set [9]. Besides, the IC50 was 9.81 nM in data set [2] and 6.36 nM in data set [10]. The inhibition in data set [11] and in data set [12] was less than 50% in each case.
Regarding `COc1cc(OC)c(Cl)c(Nc2ncccc2-c2ncnc(Nc3ccccc3)n2)c1Cl`, the GI50 in data set [1] is more than 5000 nM; in data set [3], 136 nM; in data set [5] (BaF3 cells) it was more than 5 µM; in [6] it was 3.62 µM; in data set [7], 16 nM; in data set [9] it was 1420 nM. Also, the IC50 in data set [2] was 4.58 nM; in [10], 2.51 nM. Moreover, the inhibition in [11] and in data set [12] was less than 50% in each case.
Turning to `COc1cc(N2C[C@@H](C)N[C@@H](C)C2)ccc1Nc1ncnc(-c2cccnc2Nc2c(Cl)c(OC)cc(OC)c2Cl)n1`, the GI50 in data set [1] came out at 2710 nM; in data set [3] it was 818 nM; in data set [5] (BaF3 cells), 2.73 µM; in data set [6], 3.33 µM; in data set [7], 286 nM; in data set [9], 872 nM. Also, the IC50 stood at 23.9 nM in [2], 3560 nM in data set [4] and 32.9 nM in data set [10]. The inhibition in data set [12] was less than 50%.
Turning to `COc1cc(OC)c(Cl)c(Nc2ncccc2-c2ncnc(Nc3ccc(N4CCN(C(C)=O)CC4)cc3)n2)c1Cl`, the GI50 in data set [1] is 3020 nM; in data set [3], 63 nM; in [5] (BaF3 cells), more than 5 µM; in data set [6], 6.01 µM; in [7] it was 30 nM; in data set [9], 1500 nM. Also, the IC50 in [2] is 8.05 nM; in data set [4], 3010 nM; in [8] it was 1120 nM; in data set [10] it was 4.49 nM.
Regarding `CCN1CCN(c2ccc(Nc3cc(-c4cccnc4Nc4c(Cl)c(OC)cc(OC)c4Cl)ncn3)cc2)CC1`, the IC50 in [15] worked out at 1.83 nM; in data set [16], 8.55 nM; in [2] it was 2.86 nM; in data set [8] it was 464 nM; in data set [10] it was 6.06 nM; in data set [17], 50.3 nM. In addition, the GI50 in [13] came to 3.37 µM; in data set [1], 2000 nM; in data set [3], 263 nM; in data set [5] (BaF3 cells) it was 3.25 µM; in data set [6], 4.29 µM; in data set [7] it was 8 nM. Moreover, the GI50 turned out to be 479 nM in data set [9] and 3.2 µM in data set [14].
For `COc1cc(OC)c(Cl)c(Nc2ncccc2-c2ncnc(Nc3ccc(N4CCOCC4)cc3)n2)c1Cl`, the 50% growth inhibitory concentration (GI50) was more than 5000 nM in data set [1]; 1130 nM in [3]; more than 5 µM in data set [5] (BaF3 cells); 22.4 µM in data set [6]; 393 nM in [7]; 12200 nM in [9]. Moreover, the IC50 is 16 nM in [2] and 37.7 nM in data set [10]. For the same compound, the inhibition in data set [11] and in [12] was less than 50% throughout.
Regarding `COc1cc(OC)c(Cl)c(Nc2ncccc2-c2ncnc(Nc3ccc(N4CCC(O)CC4)cc3)n2)c1Cl`, the concentration for 50% growth inhibition (GI50) in data set [1] is 3880 nM; in [3], 117 nM; in data set [5] (BaF3 cells), more than 5 µM; in data set [6] it was 8.25 µM; in data set [7], 40 nM; in [9], 1270 nM. Besides, the concentration for half-maximal inhibition (IC50) in data set [2] was 8.29 nM; in data set [4], 2160 nM; in data set [8] it was 1810 nM; in [10], 6.05 nM.
As to `COc1cc(OC)cc(N(CCNC(C)C)c2ccc3ncc(-c4cnn(C)c4)nc3c2)c1` [ERDAFITINIB], the GI50 in data set [13] is 4.01 µM; in [1] it was 761 nM; in [3], 48 nM; in [5] (baf3) it was more than 5 µM; in [6] it was 3.8 µM; in data set [7], 5 nM. The GI50 is 390 nM in data set [9] and more than 5 µM in [14].
Regarding `COc1cc(N2CCN(C)CC2)ccc1Nc1ncnc(-c2cccnc2Nc2c(Cl)c(OC)cc(OC)c2Cl)n1`, the GI50 turned out to be 2130 nM in data set [1]; 689 nM in [3]; 2.79 µM in [5] (BaF3 cells); 7.26 µM in data set [6]; 282 nM in [7]; 730 nM in data set [9]. The IC50 was 20.3 nM in data set [2], 2640 nM in data set [4], 7750 nM in [8] and 75.3 nM in [10].
With `COc1cc(OC)c(Cl)c(Nc2ncccc2-c2ncnc(NCCN(C)C)n2)c1Cl`, the GI50 was more than 5000 nM in data set [1]; 1940 nM in data set [3]; more than 5 µM in [5] (BaF3 cells); 11.2 µM in data set [6]; 4040 nM in data set [7]; 3570 nM in data set [9]. Further, the IC50 in data set [2] was found to be 839 nM; in data set [10] it was 368 nM. Also, the inhibition in data set [11] and in data set [12] was less than 50% throughout.
In the case of `COc1cc(OC)c(Cl)c(Nc2ncccc2-c2ncnc(Nc3cnn(CCCN(C)C)c3)n2)c1Cl`, the concentration for 50% growth inhibition (GI50) worked out at 897 nM in data set [1]; 421 nM in data set [3]; 2.73 µM in data set [5] (BaF3 cells); 0.51 µM in [6]; 5 nM in data set [7]; 189 nM in [9]. Also, the IC50 in data set [2] turned out to be 1.19 nM; in data set [4], 1110 nM; in data set [8], 319 nM; in [10], 3.96 nM.
Take `COc1cc(OC)c(Cl)c(Nc2ncccc2-c2ncnc(Nc3ccc(N4CCOCC4)nc3)n2)c1Cl`: the GI50 is more than 5000 nM in [1]; 781 nM in data set [3]; more than 5 µM in data set [5] (BaF3 cells); 11.5 µM in [6]; 664 nM in data set [7]; 2020 nM in data set [9]. Further, the IC50 in data set [2] was determined as 8.62 nM; in data set [8], 4060 nM; in [10], 3.09 nM. Further, in [11], the inhibition was less than 50%.
In the case of `COc1cc(OC)c(Cl)c(Nc2ncccc2-c2ncnc(Nc3cnn(C4CCOCC4)c3)n2)c1Cl`, the GI50 in [1] is 3160 nM; in data set [3], 105 nM; in data set [5] (BaF3 cells), more than 5 µM; in data set [6], 6.23 µM; in [7], 5 nM; in data set [9], 1380 nM. Further, the IC50 in [2] turned out to be 2.51 nM; in data set [4], 2770 nM; in [8] it was 1170 nM; in data set [10], 13.8 nM.
Regarding `COc1cc(OC)c(Cl)c(Nc2ncccc2-c2ncnc(Nc3ccc(N(C)C)cc3)n2)c1Cl`, the GI50 in data set [1] is more than 5000 nM; in data set [3] it was 591 nM; in [5] (BaF3 cells) it was more than 5 µM; in [6] it was 14.8 µM; in data set [7] it was 164 nM; in [9], more than 50000 nM. In addition, the figures for the IC50 in data set [2] and in [10] were 15 nM and 14.7 nM, respectively. In addition, the inhibition in data set [11] and in data set [12] was less than 50% throughout.
Take `COc1cc(OC)c(Cl)c(Nc2ncccc2-c2ncnc(Nc3cnn(C)c3)n2)c1Cl`: the GI50 was 731 nM in data set [1]; 31 nM in data set [3]; more than 5 µM in data set [5] (BaF3 cells); 2.32 µM in data set [6]; 5 nM in data set [7]; 315 nM in data set [9]. For the same compound, the IC50 was 2.41 nM in [2], 2840 nM in [4], 163 nM in data set [8] and less than 0.5 nM in [10].
